Test results: patent US10561763B2, “Oxygen generating biomaterial” (THE BOARD OF REGENTS OF THE UNIVERSITY OF TEXAS SYSTEM, priority 2013, dated 2020)

Assay: half-life of thermal oxygen release (thermolysis) of endoperoxides in CDCl3 at 25° C.
Format: physicochemical
Conditions: CDCL3, 25° C.
Description: In certain aspect an oxygen generating biomaterial can comprise a fast release thermolytic endoperoxide, a slow release thermolytic endoperoxide, or a slow release thermolytic endoperoxide and a fast release endoperoxide. A biomaterial can further comprise a singlet oxygen quencher. […] The ti/2 half-life is temperature dependent. This aids in both storage and release. The ti/2 is longer the lower the storage temperatures. […] The endoperoxide oxygen-carrier is most conveniently prepared by photo-oxidation of a precursor aromatic organic compound. The structure of the endoperoxide-forming compound determines its thermal stability and thus how rapidly oxygen is released and precursor compound reformed (via a “retro-Diels-Alder reaction”) at any given temperature. At body temperature the half-life (ti/2) for thermal release of ^1O2 from an endoperoxide (also known as “thermolysis”) can range from seconds to days. By combining two or more endoperoxide compounds, one with a relatively slow release rate (long ti/2) at the working temperature, and one or more with faster release rates (short ti/2), it is possible to form delivery systems with a wide range of rates, durations, and profiles of oxygen generation to suit a variety of end-use applications. In some applications it is possible to design a system that could be recharged by photo-oxidizing the reformed precursor compound(s). FIG. 1 illustrates an example of the chemistry involved.

CC1=C(C)C2(C)OOC1(C)c1ccccc12 [1,2,3,4-tetramethylnaphthalene-1,4-endoperoxide]
ti/2 in hours as measured in the presence of CDCL3 at 25° C.: indeterminant

CC1=CC2(C)OOC1(C)c1ccccc12 (centres unmarked) [1,2,4-trimethylnaphthalene-1,4-endoperoxide]
ti/2 in hours as measured in the presence of CDCL3 at 25° C.: 70 h

CC12C=CC(C)(OO1)c1ccccc12 [1,4-dimethylnaphthalene-1,4-endoperoxide]
ti/2 in hours as measured in the presence of CDCL3 at 25° C.: 5 h

Cc1cccc2c1C1(C)C=CC2(C)OO1 (centres unmarked) [1,4,5-trimethylnaphthalene-1,4-endoperoxide]
ti/2 in hours as measured in the presence of CDCL3 at 25° C.: 290 h

Cc1cccc2c1C1(C)C=CC2OO1 (centres unmarked) [1,8-dimethylnaphthalene-1,4-endoperoxide]
ti/2 in hours as measured in the presence of CDCL3 at 25° C.: 30 h
